Consider one compound from US20140341857A1, “COMBINATION OF ONCOLYTIC AD[…] HISTONE DEACETYLASE INHIBITORS” (INSTITUT GUSTAVE ROUSSY, priority 2011, published 2014).

pIC50: −log10 of the molar value.

Series [1] concerns γH2AX. Put plainly: γH2AX expression, Western blot. The format is cell-based. The conditions noted are these: CRAd MOI 15.6, VPA 10mM (the IC50 of HT29; cell line and time not given). Here is the method: Colon carcinoma HT29 and HCT116 cells (5·10^5) in MW6 were treated with Δ24 CRAd (MOI 15.6 vp/cell), with or without VPA (IC25 and IC50). At indicated time points p.i., the cells were harvested and protein extracts were prepared in RIPA buffer (10 mM Tris base pH 8.8, NaCl 150 mM, EDTA 1mM, NP-40 1%, deoxycholic acid 1%) supplemented with mini EDTA proteases (ROCHE LABORATORY). Protein extracts were sonicated and centrifuged. Then, protein extracts (25 μg) were run into a NuPage (INVITROGEN, France), transferred onto a nitrocellulose membrane, and probed with anti-phospho-H2AX (Ser139) antibody (clone JBW301, MILLIPORE) or anti-actin antibodies (AC-15, SIGMA-ALDRICH) followed by HRP-conjugated secondary antibody. γH2AX was quantified by IMAGE-J software and expressed as arbitrary units relative to untreated cells.
In general terms: In western blotting, separated proteins are transferred to a membrane and probed.

Series [2] concerns viral hexon protein. Put plainly: Immunohistochemistry of viral hexon protein in HT29 tumor xenografts. The note with it: tumors excised at day 10, VPA 300 mg/kg. The format is in vivo, mice. Here is the method: The effects of VPA on CRAd replication were also tested in vivo in HT29 tumor xenografts of mice injected with PBS, Δ24 CRAd, or VPA (300 mg/kg)+CRAd as described in Example 2 above. Tumors were excised at day 10, and expression of viral hexon protein was evaluated by immunohistochemistry. Tumors were fixed in FineFix (from IGR) paraffin-embedded, and cut into 4-μm-thick sections. Hematoxylin-eosin-safranin staining was performed on all of the xenografts for analysis of morphology. The polyclonal anti-adenovirus hexon protein antibody AB 1056 (CHEMICON INTERNATIONAL, Temecula, Calif.), diluted 1:300, was detected by a biotinylated rabbit antigoat immunoglobulin antibody streptavidin-horseradish peroxidase conjugate (DAKO), and the chromogen diaminobenzidine. Slides were counterstained with hematoxylin.

The test system of series [3] is E1A and fiber adenoviral proteins. The series can be described thus: Western blot of early (E1A) and late (fiber) adenoviral proteins in HT29 cells. The format is cell-based. Here is the method:
For determining viral protein expression, HT29 cells (5·10^5) in MW6 medium were treated with Δ24 CRAd (MOI 15.6 vp/cell), with or without VPA. At different time points p.i. (24 h, 48 h, and 72 h), tumor cells were harvested and protein extracts were prepared in RIPA buffer (10 mM Tris base pH 8.8, NaCl 150 mM, EDTA 1 mM, NP-40 1%, deoxycholic acid 1%) supplemented with mini EDTA proteases (Roche laboratory). In order to quantify the expression of early (E1A) and late (fiber) adenoviral proteins, proteins (25 μg) were run into a NuPage (Invitrogen, France), transferred onto a nitrocellulose membrane, and probed with anti-fiber antibody (AB4 clone 4D2, THERMOSCIENTIFIC), anti-E1A antibody (sc-430, Santa Cruz), or (as a control) anti-actin antibody (Clone AC-15, SIGMA-ALDRICH) followed by HRP-conjugated secondary antibody.

Series [4] has as its system HT29. Put plainly: MTT assay, growth inhibition by HDACi after 48 h. The format is cell-based. The note with it: Homo sapiens, HT-29, HT29, 48 h of treatment. The text has this: (§1) HT29, HCT116, SW480, SW620 colon adenocarcinomas cell lines, 911 human embryonic retinal cell lines and HEK293, a human embryonic kidney cell line expressing the adenoviral E1 protein were purchased from ATCC (American Tissue Culture Collection, Manassas, Va., USA).
HT29 and 911 were maintained in Dulbecco's modified Eagle's medium (DMEM; GIBCO) supplemented with 10% heat-inactivated fetal bovine serum (FBS; GIBCO).
(§2) First, three different histone deacetylase inhibitors: Trichostatin A (TSA), an hydroxamic acid; Valproic Acid (VPA), a short-chain aliphatic acid, and sodium butyrate (Nabu), a short-chain aliphatic acid, were evaluated for their ability to induce inhibition of the growth of these cells after 48 h of treatment using an MTT assay.
In general terms: Formazan colour is commonly taken as a measure of viable cells.

Series [5] relates to HT29 cells. Put plainly: MTT cell survival after oncolytic adenovirus with or without HDACi. The format is cell-based. The note with it: HT29, 3 days p.i., co-treatment with VPA and AE18. Here is the method:
Then the cells were treated with one of these HDACis (at concentrations in the range of IC50/2 and IC50) and transduced with the oncolytic adenovirus Δ24, at increasing multiplicity of infection (MOI). The survival of the cells at day 3 p.i. was evaluated using the MTT assay.
Colon carcinoma cells (HT29, HCT116, SW480, SW620) were plated in quadruplicates on 96-well plates (10^4 cells/well) and were treated with different MOI of Δ24 CRAd (ranging from 0 to 1000 vp/cell), VPA (0, IC25 or IC50) or a combination of CRAd and VPA. After 3 days, cell viability was measured with MTT assay and the results (means+SD) were expressed relative to non-infected cells treated with different VPA doses (0, IC25 and IC50). The results are representative of three experiments.
Colon carcinoma cells (HT29, HCT116) were treated in quadruplicates with Δ24 CRAd (MOI 15.6 vp/cell) without or with VPA (IC25 or IC50) and cell viability was measured at different time points thereafter using a MTT assay. The results (means+SD) were expressed relative to untreated or VPA (0, IC25 and IC50)-treated cells at the same time point. […] They are representative of two experiments.
The effects of a co-treatment with the oncolytic adenovirus Δ24 and the histone deacetylase inhibitor VPA on the survival of HT29 cells 3 days p.i. were compared with those of a co-treatment with VPA and the recombinant adenovirus AE18. […]

The test system of series [6] is SW620. The series can be described thus: MTT assay, growth inhibition by HDACi after 48 h. The format is cell-based. The note with it: Homo sapiens, SW-620, SW620, 48 h of treatment. The procedure:
as §1
(§3) The same medium was used for SW480 and SW620 supplemented with 1 mM Sodium Pyruvate (Invitrogen/GIBCO)
as §2

Series [7] relates to SW480. The series can be described thus: MTT assay, growth inhibition by HDACi after 48 h. The format is cell-based. The note with it: Homo sapiens, SW480, 48 h of treatment. The procedure:
as §1, §3, §2

In the case of `CCCC(CCC)C(=O)O` [VPA, Valproic Acid], the “level of γH2AX relative to untreated cells” value in series [1] worked out at 5.6 fold. In addition, in series [2], the “amount of hexon protein in the tumor” value was “decreased”. The E1A expression entry in series [3] (HT29, CRAd MOI 15.6, 24 h, 48 h, 72 h) is “did not modify E1A expression”. Further, the “expression of the fiber protein” value in series [3] (HT29, CRAd MOI 15.6, day 1) is “strongly diminished”; in series [3] (HT29, CRAd MOI 15.6, day 2 and 3), “minor effect”. Besides, the pIC50 (usually the IC50 on a negative log10 scale, so that one unit is a factor of ten) was 2.00 in series [4], 2.30 in series [6] and 2.00 in series [7]. In addition, the “effect of VPA on the cytotoxicity of the recombinant adenovirus AE18” value in series [5] was “no effect”.
